What all share (assay type): cell-based
The test system of assay [1] is H1975 cells. As to the kind of experiment: In vitro tumor cell proliferation assay (Cell Titer-Glo) in H1975 cells. Particulars: NCI-H1975; H1975 human NSCLC expressing mutant HER1 (L858R,T790M); 72 hours exposure; read-out: IC50, activities in H 1975 cell lines. In a few lines: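 After 72 h compound exposure at 37° C (top 10 uM down to 64 pM, 0.1% DMSO), viability of EGFR L858R/T790M-mutant H1975 cells was read as ATP luminescence.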

Assay [2] deals with A431 cells. As to the kind of experiment: In vitro tumor cell proliferation assay (Cell Titer-Glo) in A431 cells. Particulars: Homo sapiens, A-431, 72 h, A431 human epidermoid carcinoma overexpressing HER1; 72 hours exposure; read-out: IC50, activities in A431 cell lines. In short, it runs like this: (§1)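 Viability after 72 h drug exposure at 37 °C was read as CellTiter-Glo ATP luminescence, giving IC50. Cells (2.5×10^3/well, RPMI + 10% FBS) were compound-treated one day post-seeding, 0.1% DMSO final: A431 overexpresses HER1, N87 overexpresses HER2 and HER1.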

In assay [3] the test system is N87. As to the kind of experiment: In vitro tumor cell proliferation assay (Cell Titer-Glo) in N87 cells. Particulars: N87 human gastric carcinoma overexpressing HER2 and HER1; 72 hours exposure; read-out: IC50, activities in N87 cell lines. In a few lines: as §1
On the technique in general: ATP-based viability assays read luminescence as a measure of living cells.

Bounds are passed on as bounds.

For orientation: IC50 means the concentration that inhibits the measured activity by half. Turning to `CN(C)C/C=C/C(=O)N1CCc2c(sc3ncnc(Nc4ccc5c(cnn5Cc5cccc(F)c5)c4)c23)C1` [Example 92, 7-[(2E)-4-(dimethylamino)but-2-enoyl]-N-[1-(3-fluorobenzyl)-1H-indazol-5-yl]-5,6,7,8-tetrahydropyrido [4′,3′:4,5]thieno[2,3-d]pyrimidin-4-amine], the IC50 in assay [1], in assay [2] and in assay [3] was less than 200 nM throughout.

`CCN(CC)C/C=C/C(=O)N1CCc2c(sc3ncnc(Nc4ccc(OCc5cnccn5)c(Cl)c4)c23)C1` [Example 72, N-[3-chloro-4-(pyrazin-2-ylmethoxy)phenyl]-7-[(2E)-4-(diethylamino)but-2-enoyl]-5,6,7,8-tetrahydropyrido [4′,3′:4,5]thieno[2,3-d]pyrimidin-4-amine]: the concentration for half-maximal inhibition (IC50) in assay [1] was 200 to 1000 nM; in assay [2], 1000 to 10000 nM; in assay [3] it was less than 200 nM.

As to `CCN(CC)C/C=C/C(=O)N1CCc2c(sc3ncnc(Nc4ccc5c(cnn5Cc5ccccn5)c4)c23)C1` [Example 111, 7-[(2E)-4-(diethylamino)but-2-enoyl]-N-[1-(pyridin-2-ylmethyl)-1H-indazol-5-yl]-5,6,7,8-tetrahydropyrido [4′,3′:4,5]thieno[2,3-d]pyrimidin-4-amine], the results for the IC50 in assay [1], in assay [2] and in assay [3] were 200 to 1000 nM, 200 to 1000 nM and less than 200 nM, respectively.

In the case of `C#Cc1cccc(Nc2ncnc3sc4c(c23)CCN(C(=O)/C=C/CN2CCOCC2)C4)c1` [Example 15, N-(3-ethynylphenyl)-7-[(2E)-4-morpholin-4-ylbut-2-enoyl]-5,6,7,8-tetrahydropyrido[4′,3′:4,5]thieno[2,3-d]pyrimidin-4-amine], the IC50 in assay [1] is 1000 to 10000 nM; in assay [2] it was less than 200 nM; in assay [3], less than 200 nM.

For `Cc1cccc(Nc2ncnc3sc4c(c23)CCN(C(=O)/C=C/CN(C)C)C4)c1` [Example 177, 7-[(2E)-4-(dimelhylamino)but-2-enoyl]-N-(3-methylphenyl)-5,6,7,8-tetrahydropyrido [4′,3′:4,5]thieno[2,3-d]pyrimidin-4-amine], the IC50 in assay [1] is 1000 to 10000 nM; in assay [2], 1000 to 10000 nM; in assay [3] it was less than 200 nM.

Consider `O=C(/C=C/CN1CCCC1)N1CCc2c(sc3ncnc(Nc4ccc(OCc5cccc(F)c5)c(Cl)c4)c23)C1` [Example 25, N-{3-chloro-4-[(3-fluorobenzyl)oxy]phenyl}-7-[(2E)-4-pyrrolidin-1-ylbut-2-enoyl]-5,6,7,8-tetrahydropyrido [4′,3′:4,5]thieno[2,3-d]pyrimidin-4-amine], for which the concentration for half-maximal inhibition (IC50) in assay [1] was 200 to 1000 nM; in assay [2] it was 200 to 1000 nM; in assay [3], less than 200 nM.

Turning to `O=C(/C=C/CN1CCCC(CO)C1)N1CCc2c(sc3ncnc(Nc4ccc(OCc5ccccn5)c(Cl)c4)c23)C1` (stereo not drawn) [Example 47, (1-{(2E)-4-[4-{[3-chloro-4-(pyridin-2-ylmethoxy)phenyl]amino}-5,8-dihydropyrido [4′,3′:4,5]thieno[2,3-d]pyrimidin-7(6H)-yl]-4-oxobut-2-en-1-yl}piperidin-3-yl)methanol], the figures for the IC50 in assay [1], in assay [2] and in assay [3] were 200 to 1000 nM, 200 to 1000 nM and less than 200 nM, respectively.

For `CCN(CC)C/C=C/C(=O)N1CCc2c(sc3ncnc(Nc4ccc(Cl)c(Cl)c4)c23)C1` [Example 188, N-(3,4-dichlorophenyi)-7-[(2E)-4-(diethylamino)but-2-enoyl]-5,6,7,8-tetrahydropyrido [4′,3′:4,5]thieno[2,3-d]pyrimidin-4-amine], the IC50 was 200 to 1000 nM in assay [1], 200 to 1000 nM in assay [2] and less than 200 nM in assay [3].

`C=C(CN(CC)CC)C(=O)N1CCc2c(sc3ncnc(Nc4ccc(F)c(Cl)c4)c23)C1` [Example 147, N-(3-chloro-4-fluorophenyl)-7-{2-[(diethylamino)methyl]acryloyl}-5,6,7,8-tetrahydropyrido [4′,3′:4,5]thieno[2,3-d]pyrimidin-4-amine]: the half-inhibitory concentration (IC50) in assay [1] is 1000 to 10000 nM; in assay [2], 200 to 1000 nM; in assay [3] it was less than 200 nM.

With `CN1CCC=C(C(=O)N2CCc3c(sc4ncnc(Nc5ccc(OCc6ccccn6)c(Cl)c5)c34)C2)C1` [Example 30, N-[3-chloro-4-(pyridin-2-ylmethoxy)phenyl]-7-[(1-methyl-1,2,5,6-tetrahydropyridin-3-yl)carbonyl]-5,6,7,8-tetrahydropyrido [4′,3′:4,5]thieno[2,3-d]pyrimidin-4-amine], the IC50 in assay [1] was 1000 to 10000 nM; in assay [2], 1000 to 10000 nM; in assay [3], 200 to 5000 nM.

Regarding `O=C(/C=C/CN1CCC(CCO)CC1)N1CCc2c(sc3ncnc(Nc4ccc(F)c(Cl)c4)c23)C1` [Example 57, 2-{1-[(2E)-4-{4-[(3-chloro-4-fluorophenyl)amino]-5,8-dihydropyrido [4′,3′:4,5]thieno[2,3-d]pyrimidin-7(6H)-yl}-4-oxobut-2-en-1-yl]piperidin-4-yl}ethanol], the IC50 was 200 to 1000 nM in assay [1], 1000 to 10000 nM in assay [2] and less than 200 nM in assay [3].

For `CC(C)N(C)C/C=C/C(=O)N1CCc2c(sc3ncnc(Nc4ccc(Cl)c(Cl)c4)c23)C1` [Example 187, N-(3,4-dichlorophenyl)-7-{(2E)-4-[isopropyl(methyl)amino]but-2-enoyl}-5,6,7,8-tetrahydropyrido[4′,3′:4,5]thieno[2,3-d]pyrimidin-4-amine], the IC50 in assay [1] was less than 200 nM; in assay [2], 200 to 1000 nM; in assay [3] it was less than 200 nM.

`CN(C)C/C=C/C(=O)N1CCc2c(sc3ncnc(Nc4ccc5c(cnn5Cc5ccccc5)c4)c23)C1` [Example 97, N-(1-benzyl-1H-indazol-5-yl)-7-[(2E)-4-(dimethylamino)but-2-enoyl]-5,6,7,8-tetrahydropyrido [4′,3′:4,5]thieno[2,3-d]pyrimidin-4-amine]: the IC50 is 200 to 1000 nM in assay [1], 200 to 1000 nM in assay [2] and less than 200 nM in assay [3].

Regarding `CN(C/C=C/C(=O)N1CCc2c(sc3ncnc(Nc4cccc(Br)c4)c23)C1)C(C)(C)C` [Example 198, N-(3-bromophenyl)-7-{(2E)-4-[tert-butyl(methyl)amino]but-2-enoyl}-5,6,7,8-tetrahydropyrido [4′,3′:4,5]thieno[2,3-d]pyrimidin-4-amine], the values for the IC50 in assay [1], in assay [2] and in assay [3] were 200 to 1000 nM, less than 200 nM and less than 200 nM, respectively.

`CN(C)C/C=C/C(=O)N1CCc2c(sc3ncnc(Nc4ccccc4)c23)C1` [Example 161, 7-[(2E)-4-(dimethylamino)but-2-enoyl]-N-phenyl-5,6,7,8-tetrahydropyrido [4′,3′:4,5]thieno[2,3-d]pyrimidin-4-amine]: the IC50 was 200 to 1000 nM in assay [1], 200 to 1000 nM in assay [2] and less than 200 nM in assay [3].

As to `CC1CN(C/C=C/C(=O)N2CCc3c(sc4ncnc(Nc5ccc(OCc6ccccn6)c(Cl)c5)c34)C2)CC(C)O1` (stereo not drawn) [Example 53, N-[3-chloro-4-(pyridin-2-ylmethoxy)phenyl]-7-((2E)-4-(2,6-dimethylmorpholin-4-yl)but-2-enoyl]-5,6,7,8-tetrahydropyrido [4′,3′:4,5]thieno[2,3-d]pyrimidin-4-amine], the figures for the IC50 in assay [1], in assay [2] and in assay [3] were 1000 to 10000 nM, 1000 to 10000 nM and less than 200 nM, respectively.

As to `O=C(/C=C/CN1CCCCC1)N1CCc2c(sc3ncnc(Nc4ccc5c(cnn5Cc5ccccc5)c4)c23)C1` [Example 104, N-(1-benzyl-1H-indazol-5-yl)-7-[(2E)-4-piperidin-1-ylbut-2-enoyl]-5,6,7,8-tetrahydropyrido [4′,3′:4,5]thieno[2,3-d]pyrimidin-4-amine], the IC50 in assay [1] was 200 to 1000 nM; in assay [2], 200 to 1000 nM; in assay [3] it was less than 200 nM.

Regarding `CCN(C)C/C=C/C(=O)N1CCc2c(sc3ncnc(Nc4ccc5c(ccn5Cc5ccccn5)c4)c23)C1` [Example 127, 7-{(2E)-4-[ethyl(methyl)amino]but-2-enoyl}-N-[l-(pyridin-ylmethyl)1H-indol-5-yl]-5,6,7,8-tetrahydropyrido [4′,3′:4,5]thieno[2,3-d]pyrimidin-4-amine], the results for the IC50 in assay [1], in assay [2] and in assay [3] were 200 to 1000 nM, 200 to 1000 nM and less than 200 nM, respectively.

Regarding `O=C(/C=C/CN1CCCCC1)N1CCc2c(sc3ncnc(Nc4ccc5c(ccn5Cc5ccccn5)c4)c23)C1` [Example 114, 7-[(2E)-4-piperidin-1-ylbut-2-enoyl]-N-[1-(pyridin-2-ylmethyl)-1H-indol-5-yl]-5,6,7,8-tetrahydropyrido [4′,3′:4,5]thieno[2,3-d]pyrimidin-4-amine], the 50% inhibitory concentration (IC50) in assay [1], in assay [2] and in assay [3] was less than 200 nM throughout.

For `O=C(/C=C/CN1CCOCC1)N1CCc2c(sc3ncnc(Nc4cccc(Br)c4)c23)C1` [Example 193, N-(3-bromophenyl)-7-[(2E)-4-morpholin-4-ylbut-2-enoyl]-5,6,7,8-tetrahydropyrido [4′,3′:4,5]thieno[2,3-d]pyrimidin-4-amine], the 50% inhibitory concentration (IC50) in assay [1] is 1000 to 10000 nM; in assay [2], 1000 to 10000 nM; in assay [3], less than 200 nM.

Take `O=C(C#CCCN1CCCCC1)N1CCc2c(sc3ncnc(Nc4ccc(OCc5cccc(F)c5)c(Cl)c4)c23)C1` [Example 142, N-{3-chloro-4-[(3-fluorobenzyl)oxy]phenyl}-7-(5-piperidin-1-ylpent-2-ynoyl)-5,6,7,8-tetrahydropyrido [4′,3′:4,5]thieno[2,3-d]pyrimidin-4-amine]: the half-maximal inhibitory concentration (IC50) in assay [1] was 200 to 1000 nM; in assay [2], 200 to 1000 nM; in assay [3], less than 200 nM.

These data come from patent US8501755B2, “Tetrahydropyridothienopyrimidine compounds and methods of use thereof” (Bayer Intellectual Property GmbH, priority 2006, dated 2013).
